Measured values taken from article PMC12700550, “DLL4^+ neutrophils promote Notch1-mediated endothelial PANoptosis to exacerbate acute lung injury in sepsis” (The Journal of Clinical Investigation, 2025).
Where “and” joins values, the source holds several entries; their conditions need not be identical. Identical values can stand only once.

How the values were obtained:
ZBP1 = ZBP1 mRNA in PVECs cocultured with neutrophils, RT-PCR (DAPT, NDI, peptides 1–5); assay type: cell-based, mouse; design: key to ZBP1 mRNA expression (Figure 4E): fold change in mRNA vs sham group; details: for ZBP1 mRNA expression (Figure 4E): 10 μM peptide, relative mRNA, β-actin normalized, individual replicates
Method: Immortalized mouse (Mus musculus) lung endothelial cells with polyoma middle T (PVECs) were purchased from Applied Biological Materials Inc. (ABM) and grown in 1:1 PriGrow VI Medium and PriGrow IV Medium (ABM).
(§1) Wild-type PVECs (5 × 10^5) were cocultured with sorted DLL4^+ neutrophils (5 × 10^5) or DLL4^– neutrophils (5 × 10^5) and then treated with different dosages of peptides or 10 μM DAPT (Thermo Fisher Scientific), 10 μM NDI (GenScript), or 10 μM NDI scramble (GenScript). Notch1-knockdown PVECs (5 × 10^5) were cocultured with sorted DLL4^+ neutrophils (5 × 10^5). After 16 hours, neutrophils were washed away by PBS, and PVECs were collected for further experiments. Cell viability was evaluated by propidium iodide staining using the FITC Annexin V Apoptosis Detection Kit I (catalog 556547, BD Pharmingen). Cell death was quantified as the percentage of propidium iodide–positive cells by flow cytometry.
mRNA was extracted from lung tissues with TRIzol reagent (Invitrogen, Thermo Fisher Scientific). An equal amount ([…]) of mRNA was reverse-transcribed into cDNA using the reverse transcriptase enzyme (Invitrogen, Thermo Fisher Scientific). qPCR was performed from the diluted cDNA templates with forward and reverse primers (Supplemental Table 4) and SYBR Green PCR Master Mix (Applied Biosystems, Thermo Fisher Scientific) using an Applied Biosystems 7300 real-time PCR machine. Mouse β-actin served as an internal control gene for normalization. Relative expression of mRNA was represented as fold change in comparison with the sham group.

p-MLKL = experiment: p-MLKL/MLKL (necroptosis) in PVECs cocultured with neutrophils, Western blot; assay type: cell-based, mouse; details: for p-MLKL/MLKL (Figure 4I): 10 μM peptide, 16 h, individual replicates
Method: as §1
PVECs and lung tissue were collected in previous steps. Whole-cell proteins were extracted, and the protein concentration was measured using an ABC protein assay kit (catalog 5000002, Bio-Rad). Proteins were separated using NuPAGE 4%–12% Bis-Tris gels (Invitrogen), transferred to PVDF membranes, and immunoblotted with the antibodies indicated in the figure legends according to the manufacturer’s recommendations. The ZBP1 antibody (catalog PA5-20455; 1:1,000) used in this study was obtained from Thermo Fisher Scientific, and the c-GSDMD (catalog 10137S; 1:250), GSDMD (catalog 39754S; 1:1000), c-caspase-3 (catalog 9661L; 1:250), caspase-3 (catalog 9662S; 1:1,000), p-MLKL (catalog 37333S; 1:250), MLKL (catalog 37705S; 1:1,000), N1ICD (c-Notch1) (catalog 4147S; 1:250), and Notch1 (catalog 3608S; 1:1,000) antibodies were obtained from Cell Signaling Technology. GAPDH (catalog 60004-1-Ig; 1:10,000) and β-actin (catalog A5441, Sigma-Aldrich; 1:5,000) were obtained from ProteinTech. After the blots were incubated with primary antibodies, the membranes were washed 3 times, and the blots were subsequently incubated with the corresponding fluorescent secondary antibody (LI-COR). Bands were detected using an Odyssey FC Dual-Mode Imaging system 2800 (LI-COR).

rmNotch1 = biological target: T1, rmNotch1 (Mus musculus, UniProt Q01705); experiment: BIAcore assay (surface plasmon resonance), rmDLL4 to immobilized rmNotch1; assay type: binding, murine; details: 1 μg/mL NDI
T1 construct: purchased R&D Systems 5267-TK (rmNotch1); 1389-D4-050/CF (rmDLL4)
T1 sequence (Q9JI71 28-525 partner limits assumed): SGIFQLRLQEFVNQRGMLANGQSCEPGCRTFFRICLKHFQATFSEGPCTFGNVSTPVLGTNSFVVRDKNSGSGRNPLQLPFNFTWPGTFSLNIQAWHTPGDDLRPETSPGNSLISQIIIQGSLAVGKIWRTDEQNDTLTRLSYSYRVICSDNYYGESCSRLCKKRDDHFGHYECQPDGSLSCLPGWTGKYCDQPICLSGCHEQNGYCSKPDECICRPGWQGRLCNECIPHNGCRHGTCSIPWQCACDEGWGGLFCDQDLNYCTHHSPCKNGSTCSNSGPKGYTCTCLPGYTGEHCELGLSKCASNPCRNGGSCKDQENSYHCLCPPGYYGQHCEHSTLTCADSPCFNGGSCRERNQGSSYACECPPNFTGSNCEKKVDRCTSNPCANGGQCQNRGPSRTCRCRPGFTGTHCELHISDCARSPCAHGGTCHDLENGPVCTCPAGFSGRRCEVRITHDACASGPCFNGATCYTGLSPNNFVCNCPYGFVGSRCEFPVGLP
T1 sequence (Q01705 with tags, fused parts or gaps limits assumed): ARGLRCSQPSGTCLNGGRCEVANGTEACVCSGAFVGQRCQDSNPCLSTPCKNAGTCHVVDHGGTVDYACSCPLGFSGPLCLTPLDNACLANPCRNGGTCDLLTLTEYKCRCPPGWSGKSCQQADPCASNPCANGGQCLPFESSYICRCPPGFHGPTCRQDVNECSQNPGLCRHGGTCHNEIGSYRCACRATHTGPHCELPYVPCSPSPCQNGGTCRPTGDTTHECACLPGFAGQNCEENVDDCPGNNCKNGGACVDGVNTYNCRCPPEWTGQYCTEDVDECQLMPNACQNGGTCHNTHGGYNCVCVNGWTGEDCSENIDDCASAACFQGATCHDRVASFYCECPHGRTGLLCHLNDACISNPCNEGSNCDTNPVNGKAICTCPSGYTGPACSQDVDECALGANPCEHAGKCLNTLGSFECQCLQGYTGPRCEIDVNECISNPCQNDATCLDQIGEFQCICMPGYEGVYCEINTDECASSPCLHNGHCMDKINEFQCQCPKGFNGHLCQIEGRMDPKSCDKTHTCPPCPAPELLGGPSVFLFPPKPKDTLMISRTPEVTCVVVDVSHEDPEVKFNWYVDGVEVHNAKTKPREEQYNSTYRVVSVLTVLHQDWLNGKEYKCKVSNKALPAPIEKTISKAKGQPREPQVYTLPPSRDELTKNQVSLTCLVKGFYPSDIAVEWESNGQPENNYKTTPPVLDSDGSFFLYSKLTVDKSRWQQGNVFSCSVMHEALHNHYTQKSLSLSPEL
Method: To determine rmDLL4’s direct interaction with rmNotch1, surface plasmon resonance (OpenSPR, Nicoya) was performed. High-sensitivity nitrilotriacetic acid (HS-NTA) sensors were used. Binding reactions were performed in running buffer (PBS, 0.005% P20, pH 7.4). The HS-NTA sensor was first cleaned by injection with 10 mM HCl (150 μL) followed by injection of 150 μL of 350 mM EDTA. […] For the effect of NDI efficacy on rmDLL4 binding to rmNotch1, the same HS-NTA sensor was used. rmDLL4 at all the concentrations used for binding with rmNotch1 was preincubated with 1 μg/mL NDI for 30 minutes at room temperature, and then the complexes were injected to channels 1 and 2. Binding reactions were carried out with the same running buffer at a flow rate of 40 μL/min at 20°C. Channel 1 was used as a control to evaluate nonspecific binding. The real-time interaction data were analyzed by Trace Drawer (Nicoya). The signals from channel 1 were subtracted from channel 2 coated with the ligand for all samples. Data were globally fitted for 1:1 binding (one-to-one model).

[1] = 10 μM NDI, DLL4^+ neutrophil coculture

ECAGSPCHNGGTCEDGI [NDI]
effect on ZBP1 mRNA (ZBP1; [1]): significantly attenuated by NDI treatment | ZBP1 mRNA expression (Figure 4E) (ZBP1; DLL4^+ neutrophil coculture, 16 h): 1.415 and 1.669 and 3.8174 and 1.677 and 1.56 and 2.849 and 9.163 and 6.321 and 1.561 and 1.421 and 1.212 and 1.283 and 1.413 and 1.3501 | ZBP1 mRNA expression (Figure 4E) (ZBP1; DLL4^– neutrophil coculture, 16 h): 1.952 and 2.343 and 4.227 and 9.382 and 4.404 and 4.151 and 12.0095 and 11.4783 and 1.027 and 3.606 and 3.156 and 1.889 and 1.85 and 3.13 | effect on ZBP1 mRNA (ZBP1; PVECs cocultured with DLL4^+ neutrophils, varying concentrations of peptide, 16 h, n=10/group): significantly reduced ZBP1 expression | inhibition of DLL4^+ neutrophil–induced PANoptosis in PVECs, by reduced ZBP1 expression (ZBP1; among the tested peptides): most effectively inhibited | effective concentration for ZBP1 inhibition (ZBP1; dose-response, PVECs cocultured with DLL4^+ neutrophils): 10 µM | effect on p-MLKL (p-MLKL; [1]): significantly reduced these markers of PANoptosis | p-MLKL/MLKL (Figure 4I) (p-MLKL; DLL4^+ neutrophil coculture): 1.115 and 1.398 and 1.246 and 1.299 and 0.9429 and 1.577 and 2.352 | p-MLKL/MLKL (Figure 4I) (p-MLKL; DLL4^– neutrophil coculture): 0.4818 and 0.8655 and 0.6799 and 0.9484 | effect on Notch1-DLL4 interaction (rmNotch1): significantly disrupted Notch1-DLL4 interaction
